Data set [1] can be described thus: Solubility of linker analogues. Format: physicochemical. The settings on record: read-out: Solubility, obtainable concentration.
For a further data set, the target named is T1, human GIP receptor (Homo sapiens, UniProt P48546).
T1 construct: host or cells: COS-7, transient transfection (calcium phosphate), cDNA in pCMV-Script
T1 sequence (P48546 22-466): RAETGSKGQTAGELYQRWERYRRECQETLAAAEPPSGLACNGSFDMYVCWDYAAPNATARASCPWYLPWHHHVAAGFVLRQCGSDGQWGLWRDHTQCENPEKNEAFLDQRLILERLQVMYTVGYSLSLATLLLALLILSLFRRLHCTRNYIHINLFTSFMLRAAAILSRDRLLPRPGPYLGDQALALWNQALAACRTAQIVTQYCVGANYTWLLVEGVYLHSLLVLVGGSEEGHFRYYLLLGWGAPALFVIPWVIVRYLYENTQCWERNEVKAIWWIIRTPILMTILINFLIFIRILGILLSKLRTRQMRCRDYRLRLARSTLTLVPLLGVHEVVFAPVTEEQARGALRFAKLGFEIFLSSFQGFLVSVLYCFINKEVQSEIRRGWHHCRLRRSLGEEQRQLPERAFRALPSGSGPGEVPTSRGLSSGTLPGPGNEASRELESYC
The data set is described as follows: cAMP accumulation assay, antagonism of a GIP-mediated cAMP response (50-80% of max). Format: cell-based. The settings on record: for IC50: transiently transfected COS-7 cells. Here is the method:
The day after, the cells were washed twice with Hepes buffered saline (HBS) buffer and incubated with HBS and 1 mM 3-isobutyl-1-methylxanthine (IBMX) for 30 min at 37° C. […] The HitHunter™ cAMP XS assay (DiscoveRx) was carried out according to the manufacturer's instructions.
A general note: Changes in cAMP serve as a functional read-out for many G protein-coupled receptors.

For data set [2] the following is noted: pigs, previously showed; cited from earlier work.
The conditions of data set [3]: humans, previously determined; cited from earlier work.

The text below walks through data of patent publication US11572399B2, “Long-acting GIP peptide analogues” (University of Copenhagen, priority 2017, dated 2023).

One may read the IC50 as the concentration at which inhibition is half-maximal. A lower IC50 goes with greater potency in that assay.

Like-named read-outs stand apart in the source and are kept apart here. Numbered stars: 1 amine (or outer) side, 2 acyl side, 3 side chain; on linkers, the order of the positions; unused ones are H or OH. Side chains are listed from the residue outwards. Peptide text beside a SMILES is read from it. * marks the point of attachment. γGlu = O=C(O)[C@H](CCC(=O)[*:2])N[*:1]; Palmitoyl = CCCCCCCCCCCCCCCC(=O)*; βAla = NCCC(=O)O

For `CCCCCCCCCCCCCCCC(=O)N[C@@H](CCC(=O)NCCCC[C@H](NC(=O)[C@@H](NC(=O)[C@H](CCCCN)NC(=O)[C@H](CC(=O)O)NC(=O)[C@H](CCSC)NC(=O)[C@H](C)NC(=O)[C@@H](NC(=O)[C@H](CO)NC(=O)[C@H](Cc1ccc(O)cc1)NC(=O)[C@H](CC(=O)O)NC(=O)[C@H](CO)NC(=O)[C@@H](NC(=O)[C@H](Cc1ccccc1)NC(=O)[C@@H](NC(=O)CNC(=O)[C@@H](N)CCC(=O)O)[C@@H](C)O)[C@@H](C)CC)[C@@H](C)CC)[C@@H](C)CC)C(=O)N[C@@H](CCC(N)=O)C(=O)N[C@@H](CCC(N)=O)C(=O)N[C@@H](CC(=O)O)C(=O)N[C@@H](Cc1ccccc1)C(=O)N[C@H](C(=O)N[C@@H](CC(N)=O)C(=O)N[C@@H](Cc1c[nH]c2ccccc12)C(=O)N[C@@H](CC(C)C)C(=O)N[C@@H](CC(C)C)C(=O)N[C@@H](C)C(=O)N[C@@H](CCC(N)=O)C(=O)N[C@@H](CCCCN)C(N)=O)C(C)C)C(=O)O` [AT164, [hGIP(3-30)NH2[H18K]-C16/18+y-glutamic acid]] (H-EGTFISDYSIAMDKIK([γGlu-Palmitoyl])QQDFVNWLLAQK-NH2; N-terminus assumed), the solubility in data set [1] was ≥ 200 µM. Besides, the “Fold change from GIP(3-30)NH2 (increase in potency)” value on human GIP receptor (Table 5) is listed as 6.3 fold.
As for `CCCCCCCCCCCCCCCC(=O)NCCC(=O)NCCCC[C@H](NC(=O)[C@@H](NC(=O)[C@H](CCCCN)NC(=O)[C@H](CC(=O)O)NC(=O)[C@H](CCSC)NC(=O)[C@H](C)NC(=O)[C@@H](NC(=O)[C@H](CO)NC(=O)[C@H](Cc1ccc(O)cc1)NC(=O)[C@H](CC(=O)O)NC(=O)[C@H](CO)NC(=O)[C@@H](NC(=O)[C@H](Cc1ccccc1)NC(=O)[C@@H](NC(=O)CNC(=O)[C@@H](N)CCC(=O)O)[C@@H](C)O)[C@@H](C)CC)[C@@H](C)CC)[C@@H](C)CC)C(=O)N[C@@H](CCC(N)=O)C(=O)N[C@@H](CCC(N)=O)C(=O)N[C@@H](CC(=O)O)C(=O)N[C@@H](Cc1ccccc1)C(=O)N[C@H](C(=O)N[C@@H](CC(N)=O)C(=O)N[C@@H](Cc1c[nH]c2ccccc12)C(=O)N[C@@H](CC(C)C)C(=O)N[C@@H](CC(C)C)C(=O)N[C@@H](C)C(=O)N[C@@H](CCC(N)=O)C(=O)N[C@@H](CCCCN)C(N)=O)C(C)C` [AT166, [hGIP(3-30)NH2[H18K]-C16/18+β-alanine]] (H-EGTFISDYSIAMDKIK([βAla-Palmitoyl])QQDFVNWLLAQK-NH2; N-terminus assumed), in data set [1], the solubility is ≤ 63.2 µM. In addition, on human GIP receptor (Table 5), the “Fold change from GIP(3-30)NH2 (increase in potency)” value is recorded as 2.9 fold.
Consider `CC[C@H](C)[C@H](NC(=O)[C@H](CO)NC(=O)[C@H](Cc1ccc(O)cc1)NC(=O)[C@H](CC(=O)O)NC(=O)[C@H](CO)NC(=O)[C@@H](NC(=O)[C@H](Cc1ccccc1)NC(=O)[C@@H](NC(=O)CNC(=O)[C@@H](N)CCC(=O)O)[C@@H](C)O)[C@@H](C)CC)C(=O)N[C@@H](C)C(=O)N[C@@H](CCSC)C(=O)N[C@@H](CC(=O)O)C(=O)N[C@@H](CCCCN)C(=O)N[C@H](C(=O)N[C@@H](Cc1c[nH]cn1)C(=O)N[C@@H](CCC(N)=O)C(=O)N[C@@H](CCC(N)=O)C(=O)N[C@@H](CC(=O)O)C(=O)N[C@@H](Cc1ccccc1)C(=O)N[C@H](C(=O)N[C@@H](CC(N)=O)C(=O)N[C@@H](Cc1c[nH]c2ccccc12)C(=O)N[C@@H](CC(C)C)C(=O)N[C@@H](CC(C)C)C(=O)N[C@@H](C)C(=O)N[C@@H](CCC(N)=O)C(=O)N[C@@H](CCCCN)C(N)=O)C(C)C)[C@@H](C)CC` [hGIP(3-30)NH2, reference compound], for which the concentration for half-maximal inhibition (IC50) against human GIP receptor (cAMP antagonism log, given as log IC50 (negative sign), Table 1) is 63.1 nM; against human GIP receptor (cAMP antagonism nM (IC50, antagonistic potency), Table 1 and text), 65 nM. Further, on human GIP receptor (given as log IC50 (negative sign), linker analogues, n=2, Table 5), the “cAMP accumulation logIC50 ± SEM” value is given as −7.19 ± 0.10. Moreover, the T1/2 in data set [2] and in data set [3] was 7.5 min throughout.
